We go through 3 molecules from US20210155611A1, “THE SALTS OF A COMPOUND AND THE CRYSTALLINE FORMS THEREOF” (Flutchison Medipharma Limited, priority 2017, published 2021).

The structures appear in SMILES notation. Values after ≈ are worked out from the molar mass of the structure shown. “Also recorded” adds a separate entry of the source.

What is called solubility is the dissolved amount per volume that the medium holds.

Holding throughout (format): physicochemical
The nature of series [1]: Solubility test of Form I and free base in different dissolution media. To be noted: for solubility at 24 h: thermodynamic from solid, saturated for 24 hours. Here is the method: Determination method: excess amount of Form I sample of compound of Formula A and its free base (compound 4-ethyl-N-(4-((3-ethynylphenyl)amino)-7-methoxyquinazolin-6-yl) piperazine-1-carboxamide) were suspended in different dissolution media respectively, and saturated for 24 hours under shaking at constant temperature, then filtered. The filtrates were used for determining solubility of the samples. The buffers of different pH, simulated gastric fluid, and simulated intestinal fluid were prepared according to the US pharmacopeia (USP40-NF35).

Series [2] can be described thus: Stability of Form I under high temperature, high humidity and illumination conditions. To be noted: for Purity A %: HPLC. Here is the method: Determination method: the test sample of Form I of compound of Formula A was placed on a culture dish, which was uncovered and placed in sealed clean containers. The containers were placed under a temperature of 60° C. and an illumination of 4500 lx±500 lx respectively for 10 days; or the containers were placed under a temperature of 25° C. and a relative humidity of 92.5%%±5% and under a temperature of 40° C. and a relative humidity of 75%±5% respectively for 2 weeks.
Then sampled and investigated for the purity (using HPLC analysis) and crystalline form (using X-ray powder diffraction analysis) of the sample.

The nature of series [3]: Hygroscopicity of Form I. The protocol:
Determination method: the test sample of Form I was weighed and placed on a culture dish, which was uncovered and placed in a sealed clean container with the relative humidity of 92.5%. Then the container was placed at room temperature for 10 days. Then sampled, weighed the sample after placed for 10 days, and compared with the weight of the sample before the test. Thereby the percentage of weight gain by hygroscopicity of the sample was calculated. The crystalline form was also investigated (using X-ray powder diffraction analysis).

Setting [4] is: aqueous buffer, pH 1.2 buffer, 25° C.
[5] abbreviates: aqueous buffer, pH 2.1 buffer, 25° C.
[6] abbreviates: aqueous buffer, pH 4.5 buffer, 25° C.
Setting [7] is: aqueous buffer, pH 6.8 buffer, 25° C.
Where [8] appears, read: aqueous buffer, pH 7.4 buffer, 25° C.
The mark [9] stands for this setting: fassgf or other biorelevant, Simulated intestinal fluid (SIF), 20° C.
[10] abbreviates: Simulated gastric fluid (SGF), 20° C.

`C#Cc1cccc(Nc2ncnc3cc(OC)c(NC(=O)N4CCN(CC)CC4)cc23)c1.O=C(O)CCC(=O)O` [Form I, 4-ethyl-N-(4-((3-ethynylphenyl)amino)-7-methoxyquinazolin-6-yl)piperazine-1-carboxamide succinate]: the solubility at 24 h turned out to be 103000 µg/mL in series [1] (setting [4]); 15500 µg/mL in series [1] (setting [5]); 10000 µg/mL in series [1] (setting [6]); 253 µg/mL in series [1] (setting [7]); 46.1 µg/mL in series [1] (setting [8]); 0.5 µg/mL in series [1] (aqueous buffer, pH 8.0 buffer, 25° C.). Moreover, the solubility at 24 h in series [1] (setting [9]) was 253 µg/mL; in series [1] (Distilled water, 20° C.), 803 µg/mL; in series [1] (setting [10]) it was 103000 µg/mL. For the same molecule, the “Purity A %” value in series [2] (0 day (Table 1)) came out at 99.37%; in series [2] (0 day (Table 2)) it was 98.98%; in series [2] (60° C., 10 days), 98.68%; in series [2] (75 ± 5% RH/40° C., 2 weeks) it was 99.08%; in series [2] (92.5 ± 5% RH/25° C., 2 weeks) it was 98.98%; in series [2] (4500 lx ± 500 lx, 10 days), 99.29%. Besides, the “Stability (chemical purity and crystalline form), conclusion in words” value in series [2] (high temperature and illumination 10 days, high humidity 2 weeks) is recorded as “stable”. Besides, in series [3] (92.5% RH, 25° C., 10 days, X-ray powder diffraction), the “Crystal form after 10 days” value is “not changed”. Also, the “Weight gain after 10 days (%)” value in series [3] (92.5% RH, 25° C., 10 days, succinate) is 0.01%. For the same molecule, the “Hygroscopicity, conclusion in words” value in series [3] (high humidity condition for 10 days) is on record as “non-hygroscopic”.
Consider `C#Cc1cccc(Nc2ncnc3cc(OC)c(NC(=O)N4CCN(CC)CC4)cc23)c1.O=C(O)CCC(=O)O` [compound of Formula A, 4-ethyl-N-(4-((3-ethynylphenyl)amino)-7-methoxyquinazolin-6-yl)piperazine-1-carboxamide succinate], for which, in series [1] (data of Table 4, succinate), the “Solubility compared with that of the free base, in words” value is listed as “significantly increased; also recorded: significantly higher”.
With `C#Cc1cccc(Nc2ncnc3cc(OC)c(NC(=O)N4CCN(CC)CC4)cc23)c1` [free base, 4-ethyl-N-(4-((3-ethynylphenyl)amino)-7-methoxyquinazolin-6-yl)piperazine-1-carboxamide], the solubility at 24 h in series [1] (setting [4]) is 38500 µg/mL (≈ 89400 µM); in series [1] (setting [5]) it was 5450 µg/mL (≈ 12700 µM); in series [1] (setting [6]), 5.21 µg/mL (≈ 12.1 µM); in series [1] (setting [7]), 0.84 µg/mL (≈ 1.95 µM); in series [1] (setting [8]), 0.41 µg/mL (≈ 0.952 µM); in series [1] (setting [9]), 0.84 µg/mL (≈ 1.95 µM). Besides, the solubility at 24 h is 1 µg/mL (≈ 2.32 µM) in series [1] (Distilled water, 20° C.) and 38500 µg/mL (≈ 89400 µM) in series [1] (setting [10]).
